From US10703698B2, “Compounds which activate estrogen receptors and compositions and methods of using the same” (The Board of Trustees of the University of Illinois, priority 2016, dated 2020) come the findings set out here.

“Also recorded” adds a separate entry of the source.

One data set deals with LRRC54 gene. Nature of the data set: LRRC54 (non-genomic gene) mRNA expression, qPCR. The note with it: for LRRC54 (non-genomic gene) mRNA expression, in words: MCF-7 cells, 1 μM PaPE or 10 nM E2 for 4 h where stated, versus vehicle, E2 or compound 2. On the technique in general: Quantitative PCR measures a nucleic acid by following its amplification.
For data set [1], the system named is MCF-7 cells. Nature of the data set: MCF-7 cell proliferation, WST-1 assay. It is filed as cell-based, human. As to conditions: 6 days. As for the experimental part:
Cells were seeded at 1000 cells/well in 96-well plates.
(Tetrazolium assays rely on reduction of a dye to a coloured formazan, in cell work by metabolically active cells.)

The subject of data set [2] is ERα knock-out (ERKO) C57BL/6 mice. The data set is described as follows: effects in ERα knock-out (ERKO) mice. As to conditions: 3 weeks; listed as PaPE-1. It is filed as in vivo. As for the experimental part:
FIG. 13. Effects of PaPE-1 require ERα. […] Animals were on normal chow diet. Change in body weight was monitored. (B) Uterus weights of animals from (A) at the end of 3 weeks of vehicle (Veh) or ligand treatment. (C) Triglyceride levels in the blood of animals from (A) after 3 weeks of ligand exposure.
Studies used wild type and ERα knockout mice in C57BL/6 background. All experiments involving animals were conducted in accordance with National Institutes of Health standards for the use and care of animals, with protocols approved by the University of Illinois at Urbana-Champaign and the University of Texas Southwestern Medical Center. Wild-type C57BL/6 mice were purchased from Jackson Laboratories/National Cancer Institute. ERα knockout mice with complete excision of ERα and wild type littermates were obtained from Taconic and were used as described previously in Dupont et al., Development, 127, 4277-4291, […], and Hewitt et al. FASEB J., 24, 4660-4667, 2010.

For a further data set, the target named is T1, ERα-SRC3 interaction (Homo sapiens, UniProt P03372).
T1 construct: endogenous in cells; host or cells: MCF-7
T1 sequence (P03372 1-595): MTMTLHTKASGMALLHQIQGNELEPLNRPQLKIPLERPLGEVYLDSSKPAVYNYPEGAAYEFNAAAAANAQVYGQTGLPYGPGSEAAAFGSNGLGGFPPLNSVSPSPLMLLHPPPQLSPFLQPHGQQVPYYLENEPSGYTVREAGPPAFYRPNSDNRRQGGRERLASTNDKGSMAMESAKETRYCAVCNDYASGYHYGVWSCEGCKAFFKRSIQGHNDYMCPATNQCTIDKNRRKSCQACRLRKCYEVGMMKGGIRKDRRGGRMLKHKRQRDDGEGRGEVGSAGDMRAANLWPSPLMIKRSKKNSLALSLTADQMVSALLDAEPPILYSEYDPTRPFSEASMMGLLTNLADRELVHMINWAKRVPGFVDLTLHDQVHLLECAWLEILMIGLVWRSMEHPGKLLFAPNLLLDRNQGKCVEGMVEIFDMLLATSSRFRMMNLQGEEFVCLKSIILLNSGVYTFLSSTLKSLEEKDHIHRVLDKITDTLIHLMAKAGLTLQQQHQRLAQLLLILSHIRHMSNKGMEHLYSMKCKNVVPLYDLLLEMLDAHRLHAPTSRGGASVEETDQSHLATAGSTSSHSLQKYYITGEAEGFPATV
The data set is described as follows: co-immunoprecipitation of ERα and SRC3 in MCF-7 cells. It is filed as cell-based. As to conditions: 10 nM E2 or 1 μM PaPE-1, 1 h. An excerpt:
FIG. 10. Estrogen receptor and coactivator binding and interaction assays with ligands and ligand dissociation rates. […] After ligand treatment, cell lysates were immunoprecipitated with antibody to SRC3 or control IgG, and immunoprecipitates were separated on SDS PAGE gels and blotted for ERα using anti-ERα antibody. […] For details, see methods below.
(§1) Western blot analysis used specific antibodies for ERα (HC-20, Santa Cruz); ERK2 (D-2, Santa Cruz); and pS^6, pS6K, pmTOR, pRAPTOR, pRICTOR, pMAPK (Cell Signaling). Coimmunoprecipitation assays used antibodies for SRC3 (Santa Cruz, C-20) and ERα (Santa Cruz, F10).

In data set [3] the test system is MCF-7 cells. Nature of the data set: RNA-Seq of MCF-7 cells treated with OA with and without PaPE-1. It is filed as cell-based, human. As for the experimental part: FIG. 38. Identification of genes induced by OA and PaPE-1's effect on the gene regulation. (A) RNA-Seq analysis of gene expression changes induced by OA and OA+PaPE1. Heat map of the genes with significant changed expression. MCF-7 cells were treated with Veh or 100 nM OA with and without 1 μM PaPE-1 for 24 h. RNA was isolated and RNA-Seq was performed using 2 samples from each treatment group. Differentially regulated genes were determined with p<0.05 and expression fold change >2. (B) Clusters from A. regulated by OA and reversed by PaPE-1. The average gene expression level of the cluster1 (C1) and 2 (C2) identified as PaPE-1 regulated high-fat genes. In C1, there are 425 genes whose expression were found stimulated in OA but not in the OA+PaPE-1 treatment. In C2, there are 646 genes whose expression were found suppressed in the OA but restored by OA+PaPE-1 treatment. (C) Venn diagram analysis. […] (D) Examples of OA-regulated genes. Some of the top functions of the involved genes are presented.

A further data set concerns eNOS. The data set is described as follows: eNOS activation in primary endothelial cells (14C-L-arginine to 14C-L-citrulline). It is filed as cell-based, bovine. As to conditions: 15 min; 10 nM ligand (FIG. 9E).
Another data set concerns mTOR and MAPK signaling. The data set is described as follows: Western blot of signaling pathway activation in MCF-7 cells. The class given is cell-based, human.
Excerpt: as §1
In general terms: In western blotting, separated proteins are transferred to a membrane and probed.

The test system of data set [4] is ovariectomized C57BL/6 mice. The note with it: mouse, in vivo.
Data set [5] deals with ovariectomized C57BL/6 mice. Nature of the data set: stroke model, transient middle cerebral artery occlusion (tMCAo).

`Cc1cc(-c2ccc3c(c2)CCC3O)cc(C)c1O` (racemic) [Compound 2, 5-(4-hydroxy-3,5-dimethylphenyl)-2,3-dihydro-1H-inden-1-ol]: the “LRRC54 activation, fold higher level than E2” value with LRRC54 gene (FIG. 14) was 1.9 fold. The “LRRC54 (non-genomic gene) mRNA expression, in words” value with LRRC54 gene is on record as “equivalent activities”. Besides, in the data set on LRRC54 gene (listed as PaPE-1), the “LRRC54 (non-genomic gene) mRNA expression, in words” value was “LRRC54 stimulation”. In addition, the “proliferation of MCF-7 cells” value with MCF-7 cells [1] is “did not stimulate proliferation”. The “ability to diminish body weight gain after ovariectomy in ERKO mice” value in [2] is “lost in the ERKO mice; also recorded: require ERα”. Further, on ERα-SRC3 interaction, the “coimmunoprecipitation of ERα with SRC3” value is reported as “no coimmunoprecipitated complexes were observed”. In the data set on MCF-7 cells [3], the “cluster C1: genes stimulated in OA but not in OA+PaPE-1” value is recorded as 425 genes and the “cluster C2: genes suppressed in OA but restored by OA+PaPE-1” value amounted to 646 genes. Also, in the data set with MCF-7 cells [3] (1 μM PaPE-1), the “OA-downregulated genes whose expression was restored by PaPE-1” value is “about 60%” and the “OA-upregulated genes whose activation was blocked by PaPE-1” value was 80%. Further, in the data set on eNOS, the “eNOS / NOS activity” value was “comparable response”. For the same compound, in the data set with mTOR and MAPK signaling, the “Serl 18 phosphorylation of ERα” value is “did not induce any detectable”. In addition, the “activation of mTOR, MAPK (and AKT) signaling” value in the data set on mTOR and MAPK signaling (listed as PaPE-1) was “very efficient in activating mTOR and MAPK signaling; also recorded: selectively activated mTOR and MAPK signaling”. For the same compound, in [4], the uterine wet weight entry is given as “no effect”. The “severity of CNS injury on MRI” value in data set [5] (3 and 7 days) is listed as “decreased compared with control treatment”. In addition, the infarct volumes result in data set [5] (3d and 7d post-tMCAo, compared with vehicle) is given as “significantly reduced infarct volumes”. For the same compound, in [5] (3 days post-stroke), the “degree of swelling associated with the injury” value is “attenuated” and the “reduction of leukocytes infiltrated in the brain” value is given as 93%. Moreover, in data set [5] (6d post-tMCAo), the “rotorod functional recovery, of baseline” value was determined as 85%. Also, in data set [5] (13d post-tMCAo), the “rotorod functional recovery, of baseline” value came out at 82%. In addition, the “rotorod function post-stroke, in words” value in data set [5] (mouse, in vivo) was “improved function post-stroke”.
